One assay concerns carbonic anhydrase. Briefly: in vitro carbonic anhydrase activity, simplified method of Maren. It counts as biochemical. The arrangement: averaged I50 (concentration of drug causing 50% inhibition of enzyme): unit not given here. As to the method:
Water was added to the reaction vessel which was kept in a water bath at 0±0.25° C. The reaction cell was constantly purged with CO2 at a rate of 200 to 250 ml/min. Each reagent was added at a specified time and in a specified order. […] The time required for the reaction begins with the addition of carbonate buffer and was completed with the indicator changed from red to yellow. […] Reaction time was the time for the uncatalyzed reaction time. […] By varying the time before adding the carbonate buffer and then determining the reaction time, the equilibration time can be accurately determined. The reaction time was averaged over three determinations. […] (If two enzyme units are added, then the concentration of drug yielding a reaction time corresponding to the activity of one unit is taken as the I50). An enzyme unit (e.u.) was calculated from: [formula]

For assay [1], the system named is intraocular pressure (IOP) of adult white rabbits. As to the kind of experiment: Salted Rabbit Test: IOP after topical 1% w/v suspension. It counts as in vivo. The settings on record: for IOP change, individual rabbit (Rabbit No. 1-6): 1% w/v suspension, 3 drops. As to the method:
In particular, an initial drop from the test formulation followed by two drops at one minute intervals are applied to one eye of each of six adult white rabbits that had been maintained ona diet containing 0.5% sodium. The treated eye was selected randomly, whereas, the fellow eye received placebo; the observer was masked. Results identified a small but significant reduction of intraocular pressure in the treated eye at 30, 60 and 120 minutes.
One drop, followed by two drops each at one minute intervals, was applied to one eye of normal adult white rabbits. Six rabbits were used in the experiment. The treated eye was selected randomly, whereas, the fellow eye received placebo. The observer was masked. The intraocular pressure (IOP) was measured with a Digilab Pneumotonometer, initially and every ten minutes for 120 minutes following instillation of the anti-glaucoma agent. A drop of local anesthetic was applied just prior to making the measurement.

Structures are written as SMILES. Several values for one entry are separate records, joined by “and”; a condition that tells them apart may be missing. Equal values may be shown once. Entries after “also recorded” stand apart in the source; their conditions may differ.

Take `CNS(=O)(=O)c1nnc(NC(C)=O)s1` [methyl acetazolamide, N-methyl-2-acetylamino-1,3,4-thiadiazole-5-sulfonamide]: the “in vitro carbonic anhydrase inhibition, in words” value in the assay on carbonic anhydrase was “inactive in vitro”. Moreover, the “activity relative to acetazolamide (ratio of I50)” value in the assay on carbonic anhydrase (0.52/0.00914) is 1/60. Further, the “averaged I50 (concentration of drug causing 50% inhibition of enzyme)” value at carbonic anhydrase (heparinized blood, 2 enzyme units, 0 C) is reported as 0.520. For the same molecule, the “IOP change, individual rabbit (Rabbit No. 1-6)” value in assay [1] (10 min) is -4 mm Hg and -2 mm Hg and 0 mm Hg; in assay [1] (20 min), -2 mm Hg and 0 mm Hg and -4 mm Hg and -3 mm Hg and 1 mm Hg; in assay [1] (30 min), -3 mm Hg and -2 mm Hg and -1 mm Hg; in assay [1] (40 min) it was 0 mm Hg and -1 mm Hg; in assay [1] (50 min), -5 mm Hg and -2 mm Hg and -1 mm Hg and 0 mm Hg; in assay [1] (60 min) it was -3 mm Hg and 1 mm Hg and -2 mm Hg and -1 mm Hg. Besides, the “IOP change, individual rabbit (Rabbit No. 1-6)” value in assay [1] (70 min) is -4 mm Hg and -2 mm Hg and 0 mm Hg and 2 mm Hg; in assay [1] (80 min), -3 mm Hg and -4 mm Hg and 1 mm Hg and 0 mm Hg; in assay [1] (90 min), -2 mm Hg and 1 mm Hg and -1 mm Hg and -4 mm Hg and 0 mm Hg and 3 mm Hg; in assay [1] (100 min) it was -4 mm Hg and 0 mm Hg and -3 mm Hg and -2 mm Hg; in assay [1] (110 min), -2 mm Hg and 0 mm Hg and 1 mm Hg; in assay [1] (120 min), -3 mm Hg and 0 mm Hg and -1 mm Hg. The “reduction of intraocular pressure after topical administration, in words” value in assay [1] (rabbit, eye drops) was “lowering of IOP was statistically significant at all time intervals; also recorded: able to reduce intraocular pressure”.

For the origin of these results see patent publication US4629738A, “Non-classical topical treatment for glaucoma” (University of Iowa Research Foundation, priority 1984, dated 1986).
